Test results taken from patent publication US20260191829A1, “Compositions and Methods of Treating Neurological Conditions” (DRI Biosciences Corporation, priority 2022, published 2026).
Entries after “also recorded” stand apart in the source; their conditions may differ.

Experiments:
Fmr1 KO mice [1] = assay: Metabolic activities (glucose and lipid) of Fmr1 KO mice; assay type: in vivo, mouse; conditions: Fmr1 KO mice vs FVB mice; FIG. 4C
From the text: The altered metabolic activities indicated sympathetic dysregulation (i.e., catecholaminergic disequilibrium). Dopaminergic activity modulates sympathetic activation.
(§1) The study compared learning and memory behaviors of the different drug treated and untreated (vehicle) Fmr1 KO mice with FVB mice (a background strain of the transgenic Fmr1 KO mice; “FVB” refers to the susceptibility of FVB mice to Friend leukemia virus B). Male mice (FVB.129P2-Pde6b<+> Tyr<c-ch>Fmr1<tm1Cgr>/J (Stock No: 004624 |FMR1 KO)) were used as the FXS/autism model and age-matched male mice (FVB.129P2-Pde6b<+> Tyr<c-ch>/AntJ) were used as the controls (Bernardet, M. and W. E. Crusio, Fmr1 KO mice as a possible model of autistic features. Scientific WorldJournal, 2006. 6: p. 1164-76. Hays, S. A., K. M. Huber, and J. R. Gibson, Altered neocortical rhythmic activity states in Fmr1 KO mice are due to enhanced mGluR5 signaling and involve changes in excitatory circuitry. J Neurosci, 2011. 31(40): p. 14223-34. Willemsen, R. and R. F. Kooy, Mouse models of fragile X-related disorders. Dis Model Mech, 2023. 16(2).).
Such alterations indicated an excessive sympathetic activation.

Fmr1 KO mice [2] = assay: Novel object recognition test (learning and memory) in Fmr1 KO mice; assay type: in vivo, mouse; conditions: Fmr1 KO mice vs vehicle and FVB mice, daily oral treatment from P21, ACT01 25 mg/kg, FIG. 4D
From the text: as §1
Unexpected drug-combination effects on rodent learning and memory: Novel object recognition test was used to assess treatment effects of different catecholaminergic mediations (including drug combinations) on cognitive behavior, i.e., learning and memory. […]

3-(phenylpropyl)-sydnonimine-N-phenylcarbamoyl [ACT01]
glucose and lipid metabolisms (metabolic activities) (Fmr1 KO mice [1]): normalized the glucose and lipid metabolisms; also recorded: normalized the metabolic activities | learning and memory ability (NOR index = novel object recognition index) (Fmr1 KO mice [2]): significantly (p<0.05) improved; also recorded: positively enhance
